Measured values as given in patent US20090030005A1, “Combinations for the treatment of cancer” (AMGEN INC., priority 2007, published 2009).
Like-named read-outs stand apart in the source and are kept apart here.

Legend:
Assay type in all cases: cell-based
MiaPaCa-2 cells = assay: 14C-thymidine incorporation assay, IC20 determination (MTAP status not specified); settings: Homo sapiens, MIA PaCa-2; same thymidine incorporation assay as Example 2
Method: (§1) CDK4 inhibitor in MTAP^+/+ and MTAP^−/− MiaPaCa-2 cells. The IC50 of a CDK4 inhibitor was determined in the MTAP+/+ and MTAP−/− MiaPaCa-2 cells using a thymidine incorporation assay. MTAP^−/− and MTAP^+/+ MiaPaCa-2 cells from Example 1 were seeded at 2×10^4 cells/ml in 100 μl per well in Costar T plates (Amersham Biosciences). Twenty-four hours later a dose response of a CDK4 inhibitor PD-0332991 (1 nM; 3 nM, 10 nM, 30 nM, 100 nM, 300 nM, 1 μM, 3 μM, 10 μM and 30 μM concentrations) was added to triplicate wells. ^14C-Thymidine (0.1 μCi, Amersham) was added to each well for a final total volume of 200 μL. Plates were read on a beta counter for incorporation of the radioactive thymidine as a measure of cell viability at time 0, 24, 48, 72 and 96 hours. Data was calculated as the mean and standard deviation of triplicate samples divided by the mean and standard deviation of untreated control samples to yield percent of control.
Alanosine or MTX were then dosed at the IC20 concentrations together with a dose response of the CDK4 inhibitor with or without adenine or MTA.

MTAP-/- MiaPaCa-2 cells = assay: 14C-thymidine incorporation assay (cell viability) in MTAP-/- MiaPaCa-2 cells; settings: for IC50: Homo sapiens
Method: (§2) Generation of MTAP^+/+ and MTAP^−/− MiaPaCa-2 cells. MiaPaCa-2 pancreatic cells, which harbor a homozygous deletion in MTAP (MTAP^−/−) were obtained from ATCC. Cells were infected with either a control virus (pLPC) or a virus expressing MTAP (pLPC-MTAP). Infected cells were selected by puromycin resistance and maintained in 0.5 μg/ml puromycin. MTAP expression in MTAP^+/+ MiaPaCa-2 cells was confirmed by QPCR.
as §1
(§3) Combination of de novo purine biosynthesis inhibitor and CDK4 inhibitor in MTAP^−/− cells with adenine. MTAP^−/− MiaPaCa-2 cells from Example 1 were seeded at 2×10^4 cells/ml in 100 μl per well in Costar T plates (Amersham Biosciences). Twenty-four hours later a dose response of a CDK4 inhibitor PD-0332991 (1 nM; 3 nM, 10 nM, 30 nM, 100 nM, 300 nM, 1 μM, 3 μM, 10 μM and 30 μM concentrations) was added to triplicate wells with or without 1.7 μM (IC20) of alanosine. Some cells were also treated with 20 μM adenine (Sigma) as rescue substrate. ^14C-Thymidine (0.1 μCi, Amersham) was added to each well for a final total volume of 200 μL. Plates were read for incorporation of the radioactive thymidine as a measure of cell viability on a beta counter at time 0, 24, 48, 72 and 96 hours. Data was calculated as the mean and standard deviation of triplicate samples divided by the mean and standard deviation of untreated control samples to yield percent of control.
as §3, with “MTA.” for “adenine.”, “MTA” for “adenine”
(§4) Combination of MTX and CDK4 inhibitor in MTAP^−/− cells. MTAP^−/− MiaPaCa-2 cells from Example 1 were seeded at 2×10^4 cells/ml in 100 μl per well in Costar T plates (Amersham Biosciences). Twenty-four hours later a dose response of a CDK4 inhibitor PD-0332991 (1 nM; 3 nM, 10 nM, 30 nM, 100 nM, 300 nM, 1 μM, 3 μM, 10 μM and 30 μM concentrations) and thymidine (20 μM, Sigma) was added to triplicate wells with or without 20 nM (IC20) of MTX. ^14C-Thymidine (0.1 μCi, Amersham) was added to each well for a final total volume of 200 μL. Plates were read for incorporation of the radioactive thymidine as a measure of cell viability on a beta counter at time 0, 24, 48, 72 and 96 hours.

MTAP+/+ MiaPaCa-2 cells = assay: 14C-thymidine incorporation assay (cell viability) in MTAP+/+ MiaPaCa-2 cells; settings: for IC50: Homo sapiens
Method: as §2, §1
as §3, with “MTAP^+/+” for “MTAP^−/−”
Combination of de novo purine biosynthesis inhibitor and CDK4 inhibitor in MTAP^+/+ cells with MTA. MTAP^+/+ MiaPaCa-2 cells from Example 1 were seeded at 2×10^4 cells/ml in 100 μl per well in Costar T plates (Amersham Biosciences).
as §3, with “Twenty-four” for “Combination of de novo purine biosynthesis inhibitor and CDK4 inhibitor in MTAP^−/− cells with adenine. MTAP^−/− MiaPaCa-2 cells from Example 1 were seeded at 2×10^4 cells/ml in 100 μl per well in Costar T plates (Amersham Biosciences). Twenty-four”, “MTA” for “adenine”
as §4, with “MTAP^+/+” for “MTAP^−/−”

**Q.** With `CN(Cc1cnc2nc(N)nc(N)c2n1)c1ccc(C(=O)N[C@@H](CCC(=O)O)C(=O)O)cc1` [MTX, Methotrexate] as the compound, how does the IC20 (MiaPaCa-2 cells) read?
**A.** Its IC20 is 2 nM.

**Q.** How did the IC50 (MTAP-/- MiaPaCa-2 cells; MIA PaCa-2, Example 2, first experiment, CDK4 inhibitor alone, MTAP-/- cells, FIG. 1, read-out: IC50 of the CDK4 inhibitor) turn out when `CC(=O)c1c(C)c2cnc(Nc3ccc(N4CCNCC4)cn3)nc2n(C2CCCC2)c1=O` [PD-0332991] was run?
**A.** Its IC50 is 1560 nM.

**Q.** What about the IC50 (MTAP-/- MiaPaCa-2 cells; MIA PaCa-2, MTAP-/- cells, 1.7 μM alanosine and 20 μM MTA, read-out: IC50 of the CDK4 inhibitor together with the alanosine and with MTA) of the same compound?
**A.** Its IC50 is 643 nM.

**Q.** What about the IC50 (MTAP-/- MiaPaCa-2 cells; MIA PaCa-2, MTAP-/- cells, 1.7 μM alanosine and 20 μM adenine, read-out: IC50 of the CDK4 inhibitor together with the alanosine and with adenine) of the same compound?
**A.** The IC50 was 2460 nM.

**Q.** What about the IC50 (MTAP-/- MiaPaCa-2 cells; MIA PaCa-2, MTAP-/- cells, 20 μM MTA, read-out: IC50 of the CDK4 inhibitor together with the MTA) of the same compound?
**A.** Its IC50 is 1710 nM.

**Q.** What about the IC50 (MTAP-/- MiaPaCa-2 cells; MIA PaCa-2, MTAP-/- cells, 20 μM adenine, read-out: IC50 of the CDK4 inhibitor together with the adenine) of the same compound?
**A.** The IC50 was 950 nM.

**Q.** What about the IC50 (MTAP-/- MiaPaCa-2 cells; MIA PaCa-2, MTAP-/- cells, Examples 4 and 6, FIG. 3, 5, read-out: IC50 of the CDK4 inhibitor alone) of the same compound?
**A.** Its IC50 is 1280 nM.

**Q.** And the IC50 (MTAP-/- MiaPaCa-2 cells; MIA PaCa-2, MTAP-/- cells, with 1.7 μM (IC20) alanosine, read-out: IC50 of the CDK4 inhibitor together with the alanosine)?
**A.** Its IC50 is 287 nM.

**Q.** What about the IC50 (MTAP-/- MiaPaCa-2 cells; MIA PaCa-2, MTAP-/- cells, with thymidine 20 μM and 20 nM (IC20) MTX, read-out: IC50 of the CDK4 inhibitor together with MTX) of the same compound?
**A.** The IC50 was 800 nM.

**Q.** And the IC50 (MTAP-/- MiaPaCa-2 cells; MIA PaCa-2, MTAP-/- cells, with thymidine 20 μM, Example 8, FIG. 7, read-out: IC50 of the CDK4 inhibitor alone)?
**A.** The IC50 was 1300 nM.

**Q.** What about the IC50 (MTAP+/+ MiaPaCa-2 cells; MIA PaCa-2, Example 2, first experiment, CDK4 inhibitor alone, MTAP+/+ cells, FIG. 1, read-out: IC50 of the CDK4 inhibitor) of the same compound?
**A.** The IC50 was 1820 nM.

**Q.** What about the IC50 (MTAP+/+ MiaPaCa-2 cells; MIA PaCa-2, MTAP+/+ cells, 1.7 μM alanosine and 20 μM MTA, read-out: IC50 of the CDK4 inhibitor together with the alanosine and with MTA) of the same compound?
**A.** Its IC50 is 6100 nM.

**Q.** What about the IC50 (MTAP+/+ MiaPaCa-2 cells; MIA PaCa-2, MTAP+/+ cells, 1.7 μM alanosine and 20 μM adenine, read-out: IC50 of the CDK4 inhibitor together with the alanosine and with adenine) of the same compound?
**A.** The IC50 was 5560 nM.

**Q.** What about the IC50 (MTAP+/+ MiaPaCa-2 cells; MIA PaCa-2, MTAP+/+ cells, 20 μM MTA, read-out: IC50 of the CDK4 inhibitor together with the MTA) of the same compound?
**A.** Its IC50 is 8250 nM.

**Q.** What about the IC50 (MTAP+/+ MiaPaCa-2 cells; MIA PaCa-2, MTAP+/+ cells, 20 μM adenine, read-out: IC50 of the CDK4 inhibitor together with the adenine) of the same compound?
**A.** The IC50 was 7360 nM.

**Q.** What about the IC50 (MTAP+/+ MiaPaCa-2 cells; MIA PaCa-2, MTAP+/+ cells, Examples 3 and 5, FIG. 2, 4, read-out: IC50 of the CDK4 inhibitor alone) of the same compound?
**A.** Its IC50 is 4330 nM.

**Q.** And the IC50 (MTAP+/+ MiaPaCa-2 cells; MIA PaCa-2, MTAP+/+ cells, with 1.7 μM (IC20) alanosine, read-out: IC50 of the CDK4 inhibitor together with the alanosine)?
**A.** The IC50 was 996 nM.

**Q.** And the IC50 (MTAP+/+ MiaPaCa-2 cells; MIA PaCa-2, MTAP+/+ cells, with thymidine 20 μM and 20 nM (IC20) MTX, read-out: IC50 of the CDK4 inhibitor together with MTX)?
**A.** Its IC50 is 3500 nM.

**Q.** What about the IC50 (MTAP+/+ MiaPaCa-2 cells; MIA PaCa-2, MTAP+/+ cells, with thymidine 20 μM, Example 7, FIG. 6, read-out: IC50 of the CDK4 inhibitor alone) of the same compound?
**A.** Its IC50 is 3200 nM.

**Q.** For `Nc1ncnc2nc[nH]c12` [adenine], which “Rescue of the alanosine shift of the IC50 of the CDK4 inhibitor” value (MTAP-/- MiaPaCa-2 cells; MTAP-/- cells, 20 μM rescue substrate) is on record?
**A.** The value was “rescued”.

**Q.** And the “Rescue of the alanosine shift of the IC50 of the CDK4 inhibitor” value (MTAP+/+ MiaPaCa-2 cells; MTAP+/+ cells, 20 μM rescue substrate)?
**A.** Its value is “rescued”.

**Q.** For `N[C@@H](CN(O)N=O)C(=O)O` [alanosine], which IC20 (MiaPaCa-2 cells) is on record?
**A.** The IC20 was 1700 nM.
